Several values for one entry are separate records, joined by “and”; a condition that tells them apart may be missing. Identical values can stand only once.
Legend:
[1] = Antiinflammatory effect, formalin paw edema (method by Ju. Strel'nikov); assay type: in vivo; conditions: white mice, into the stomach, dose equimolecular to 20 mg/kg of indometacin, two hours before formalin
Excerpt: Strel'nikov. […] Simultaneously antiinflammatory activity of indometacin was studied for comparison.

[2] = tested on: virus of herpes simplex (VHS) of the 2-nd antigenic type; experiment: Experimental herpes genitalis of male guinea pigs, treatment with Virolex or its OGC complex; assay type: in vivo; conditions: for Duration of the Disease: treatment begun 48 hours after infecting
Excerpt: VIRUSES. The virus of herpes simplex (VHS) of the 2-nd antigenic type was implied in this work. Clinical symptoms of experimental herpes genitalis were registered daily before carrying out of treatment and were followed during the course of the disease.
The following parameters were used as criteria of infectious process danger: square and specific damage rate—presence of an edema, hyperemia, orchitis. Maximum distinction of each symptom made up 4 points. The present symptoms allow to buildup a scale and to express the course of the disease for each group under investigation from beginning of appearance of the first symptoms of the disease up to full disappearance of these. In this case index of therapeutic effect (ITE) is expressed with the following formula: [formula]
Treatment was began 48 hours after infecting when symptoms of the disease were distinct enough.
The first group included animals infected with VHS-2 and not subjected to treatment with any medicament.
The second group included animals infected with VHS-2 and subjected to treatment with 5 mg of Virolex once a day.
The third group included animals infected with VHS-2 and subjected to treatment with 5 mg of Virolex complex with OGC once a day.

[3] = guinea pigs infected with VHS-2, 5 mg once a day

SMILES: COc1ccc2c(c1)c(CC(=O)O)c(C)n2C(=O)c1ccc(Cl)cc1 [Indometacin]
- reduction of the edema compared to the control group [1]: 33.4%

SMILES: Nc1nc2c(ncn2COCCO)c(=O)[nH]1.[OH][Ge]12[O]CCN(CC[O]1)CC[O]2 [Virolex OGC (R = OH), complex of 1-hydroxy-1-germa-2,8,9-trioxy-5-azatricyclo[3.3.3.0^1,5]undecane with Virolex]
- convalescent earlier than in the second group (Virolex) ([2]; 5 mg once a day): 4.9 days
- day of convalescence after infecting ([2]; 5 mg once a day): sixth
- Duration of the Disease [2, 3]: 6,2 ± 1,8 Days
- toxic effect on infected animals compared to pure Virolex ([2]; infected guinea pigs): decreased its toxic effect

SMILES: Nc1nc2c(ncn2COCCO)c(=O)[nH]1 [Virolex, reference compound]
- Total Index of Symptoms Distinction [2, 3]: 21 Points and 31,0 Points
- Duration of the Disease [2, 3]: 11,1 ± 2,01 Days
- Index of Therapeutic Effect (ITE) ([2]; guinea pigs infected with VHS-2, 5 mg once a day, versus control group): 58%

Reference: patent US6451850B1, “Bio-chemical germanium complexes with high therapeutic efficiency and wide application spectrum” (priority 2001, dated 2002)
